# Experiments:
# [1] = oral, cited from earlier work
# [2] = Clinic based application of topical Ivermectin for the treatment of inflammatory blepharitis; format: in vivo
# Protocol: In another embodiment, the pharmaceutical composition is administered periodically. In an embodiment, the pharmaceutical composition is applied daily for 3 days and the treatment is repeated for 3 days again after 2 weeks. In most cases this is sufficient for a significant therapeutic effect. The treatment using this frequency can be repeated again if the condition recurs but this is necessary only in a relatively small number of cases. The intermittent dosage of the Ivermectin provides the benefit of a lower amount of Ivermectin use and thereby lowers the possibility of adverse effects.
# In another embodiment, a subject with anterior and posterior blepharitis is identified and the existing symptoms and signs noted. The pharmaceutical composition is applied by the practitioner using for example, slit lamp magnification to accurately identify the areas on the eyelid margin where the pharmaceutical composition is to be applied. A topical anaesthetic drop is applied in the lower conjunctival sac of the eye 5 to 10 minutes prior. Temporary anaesthetization will attenuate the lacrimal reflex thereby minimizing the production of tear fluid during the application process.
# The pharmaceutical composition is applied as a film precisely along the length of the lid margin with the applicator just covering the openings of the Meibomian glands but taking care as to not further extend the composition into the mucosal surface. The pharmaceutical composition is extended proximally to cover the lash roots and the skin area in between. The lid is held reflected away from the eyeball until the pharmaceutical composition sets and dries in place. The pharmaceutical composition takes the form of an adhesive film or coating on the lid margin. This procedure is repeated for all the 4 eyelid margins. The administration of the pharmaceutical composition results in enhanced meibum production.
# A clinic based application of topical Ivermectin for the treatment of inflammatory blepharitis has been successful; both for cases where Demodex species were not isolated which constituted the majority of cases of Blepharitis treated, and the smaller number of cases where Demodex species were isolated. Most of these were cases with longstanding disease which had been unresponsive to a wide range of currently accepted treatment modalities. More than 95% had full relief of symptoms and a remarkable reduction in signs of inflammation of the lid margins. 87% of the cases required only 1 treatment cycle for marked improvement or complete remission of symptoms.
substance,measurement,setting,value
"mixture containing 5-O-demethyl-22,23-dihydroavermectin A1a and 5-O-demethyl-25-de(1-methylpropyl)-25-(1-methylethyl)-22,23 dihydroavermectin A1a [Ivermectin]",adverse effect at high doses,[1]; high doses,paralysis
same,safety profile,[1],good safety profile
same,cases that required only 1 treatment cycle for marked improvement or complete remission of symptoms,[2]; topical application to lid margins,87%
same,cases with full relief of symptoms and a remarkable reduction in signs of inflammation of the lid margins,"[2]; topical application to lid margins, cases with and without Demodex isolated, mostly longstanding disease unresponsive to accepted treatments",More than 95%
same,Meibomian gland orifices and secretions after treatment,"[2]; topical application, a significant number of cases",re-opening of previously closed Meibomian gland orifices
same,overall outcome of treatment of inflammatory blepharitis,"[2]; topical application, cases with and without Demodex species isolated",successful
same,dry eye symptoms after treatment,"[2]; topical application, majority of the cases where dry eye symptoms were present",remarkable improvement
